Data published in patent US20240228487A1, “FUSED HETEROCYCLIC COMPOUND AND APPLICATION THEREOF, PHARMACEUTICAL COMPOSITIONS CONTAINING SAME AND APPLICATION THEREOF” (ZHEJIANG UNIVERSITY, priority 2021, published 2024).
pIC50: −log10 of the molar value. Where a name gives a salt, the structure may show the parent alone.

Molecular target: T1, human TRPM2 channels (Homo sapiens, UniProt O94759)
T1 construct: expressed in transfected cells
Assay: whole cell patch clamp, inhibition of TRPM2 channel current
Format: cell-based
Settings: HEK293 cells stably expressing human TRPM2, 500 μM ADPR
Method: The fused heterocyclic compound of the present invention has an inhibitory effect on the TRPM2 channel, and its pharmacological activity is measured using whole cell patch clamp technology, the corresponding steps are as follows: Incubating HEK293 cells stably expressing human TRPM2 channels in DMEM/F-12 medium containing 10% bovine serum, 50 units/mL of penicillin and […] of streptomycin under the condition of 5% CO2 and 37° C. The cells before testing are stored in the extracellular fluid (147 mM NaCl, 2 mM KCl, 1 mM MgCl2, 2 mM CaCl2, 10 mM HEPES, 13 mM glucose, pH 7.4). The electrode is filled with the electrode internal solution (147 mM NaCl, 0.05 mM EGTA, 1 mM MgCl2, 10 mM HEPES, 0.5 mM ADPR, pH=7.3), and the resistance is maintained at 3-5 M Ω. Administering ADPR into cells through electrodes, and detecting the ADPR concentration used to activate TRPM2 as 500 μM, when detecting a stable current, perfusing the corresponding concentration of fused heterocyclic compound II-1 into the extracellular fluid for at least 60 seconds. record the change in current magnitude using voltage ramp mode, changing the voltage from −100 mV to+100 mV within 500 ms, with a normal clamp voltage of 0 mV and a TRPM every 5 seconds; finally, replacing the extracellular fluid with a solution with pH=5.0 to block the TRPM2 current, the electrophysiological current test results obtained are shown in Table 1, and the electrophysiological current graph obtained is shown in FIG. 1. Similarly, administering corresponding concentrations of other fused heterocyclic compounds (II-2˜II-54, III-1˜III-11) into the extracellular fluid, taking electrophysiological tests using the same method, the results are shown in Table 1. The electrophysiological representative current graphs of some fused heterocyclic compounds (II-9, II-19, and II-36) inhibiting TRPM2 channel current are shown in FIG. 1.

T1 sequence (O94759 whole entry): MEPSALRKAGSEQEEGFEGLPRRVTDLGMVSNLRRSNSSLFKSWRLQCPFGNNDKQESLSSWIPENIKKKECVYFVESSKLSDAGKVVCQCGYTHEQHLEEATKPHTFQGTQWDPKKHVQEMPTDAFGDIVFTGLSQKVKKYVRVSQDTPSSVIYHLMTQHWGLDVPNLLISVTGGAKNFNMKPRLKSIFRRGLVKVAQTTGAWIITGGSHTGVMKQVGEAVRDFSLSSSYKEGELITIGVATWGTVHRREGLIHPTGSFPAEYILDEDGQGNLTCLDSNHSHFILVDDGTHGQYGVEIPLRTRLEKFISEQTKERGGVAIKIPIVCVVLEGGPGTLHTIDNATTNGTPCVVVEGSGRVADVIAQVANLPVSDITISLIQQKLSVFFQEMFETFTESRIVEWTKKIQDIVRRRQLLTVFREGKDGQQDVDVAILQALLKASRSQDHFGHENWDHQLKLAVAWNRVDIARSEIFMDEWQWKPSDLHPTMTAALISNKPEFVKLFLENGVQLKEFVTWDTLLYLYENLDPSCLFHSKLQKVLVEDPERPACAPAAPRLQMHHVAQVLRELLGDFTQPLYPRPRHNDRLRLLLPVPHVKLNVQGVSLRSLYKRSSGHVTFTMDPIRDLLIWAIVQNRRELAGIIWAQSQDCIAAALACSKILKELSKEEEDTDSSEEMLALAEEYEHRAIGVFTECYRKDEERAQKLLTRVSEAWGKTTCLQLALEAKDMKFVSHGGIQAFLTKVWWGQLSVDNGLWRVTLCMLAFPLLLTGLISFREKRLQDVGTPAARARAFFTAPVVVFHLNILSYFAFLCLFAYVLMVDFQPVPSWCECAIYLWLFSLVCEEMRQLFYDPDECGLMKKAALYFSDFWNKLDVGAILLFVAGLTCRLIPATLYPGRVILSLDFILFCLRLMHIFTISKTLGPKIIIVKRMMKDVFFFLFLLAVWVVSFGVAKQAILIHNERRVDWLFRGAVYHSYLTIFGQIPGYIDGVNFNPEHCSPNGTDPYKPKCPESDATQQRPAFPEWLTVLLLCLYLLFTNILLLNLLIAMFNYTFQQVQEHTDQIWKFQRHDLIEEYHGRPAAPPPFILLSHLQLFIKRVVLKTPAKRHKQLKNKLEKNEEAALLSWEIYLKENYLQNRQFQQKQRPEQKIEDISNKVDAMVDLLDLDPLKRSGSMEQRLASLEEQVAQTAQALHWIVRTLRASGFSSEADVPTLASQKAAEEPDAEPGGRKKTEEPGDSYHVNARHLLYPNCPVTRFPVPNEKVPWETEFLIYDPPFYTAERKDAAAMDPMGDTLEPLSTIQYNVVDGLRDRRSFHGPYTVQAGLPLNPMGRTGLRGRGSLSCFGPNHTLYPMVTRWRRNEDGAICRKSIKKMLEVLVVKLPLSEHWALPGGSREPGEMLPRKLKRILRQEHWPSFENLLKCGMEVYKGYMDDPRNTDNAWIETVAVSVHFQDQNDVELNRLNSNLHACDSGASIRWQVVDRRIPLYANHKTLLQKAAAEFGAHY

| pIC50 | Molecule |
| --- | --- |
| 4.30 to 4.70 | 5-((octanyloxy) (phenyl) methyl) indolizine-7-ethyl carboxylate [II-49] |
| 5.00 to 6.00 | CCCOC(=O)c1cc(C(=O)c2ccccc2)n2cccc2c1 [II-2, 5-benzoimide 7-carboxypropyl ester] |
| 4.70 to 5.00 | CC(=O)c1cc(C(=O)c2ccccc2)n2cccc2c1 [II-3, 1-(5-Benzimide-7-yl) ethane-1-ketone] |
| 4.70 to 5.00 | COC(=O)c1cc(C(=O)c2ccc(F)cc2)n2cccc2c1 [II-4, 5-(4-Fluorobenzoyl) indolizine-7-methyl carboxylate] |
| 4.70 to 5.00 | CCOC(=O)c1cc(C(=O)c2ccc(F)cc2)n2cccc2c1 [II-5, 5-(4-fluorobenzoyl) indolizinee-7-ethyl carboxylate] |
| 5.00 to 6.00 | COC(=O)c1cc(C(=O)c2cccc(F)c2)n2cccc2c1 [II-6, 5-(3-Fluorobenzoyl)indolizine-7-methyl carboxylate] |
| 5.00 to 6.00 | CCOC(=O)c1cc(C(=O)c2cccc(F)c2)n2cccc2c1 [II-7, 5-(3-fluorobenzoyl)indolizine-7-ethyl carboxylate] |
| 5.00 to 6.00 | COC(=O)c1cc(C(=O)c2ccccc2F)n2cccc2c1 [II-8, 5-(2-Fluorobenzoyl) indolizine-7-methyl carboxylate] |
| 5.00 to 6.00 | CCOC(=O)c1cc(C(=O)c2cccc(Cl)c2)n2cccc2c1 [II-9, 5-(3-chlorobenzoyl) indolizine-7-ethyl carboxylate] |
| 5.00 to 6.00 | CCOC(=O)c1cc(C(=O)c2cccc(Br)c2)n2cccc2c1 [II-10, 5-(3-bromobenzoyl) indolizine-7-Ethyl carboxylate] |
| 5.00 to 6.00 | CCOC(=O)c1cc(C(=O)c2cccc(C)c2)n2cccc2c1 [II-11, 5-(3-methylbenzoyl) indolizine-7-Ethyl carboxylate] |
| 4.70 to 5.00 | CCOC(=O)c1cc(C(=O)c2cccc(OC)c2)n2cccc2c1 [II-12, Ethyl 5-(3-methoxybenzoyl) indolizine-7-carboxylate] |
| 5.00 to 6.00 | COC(=O)c1cc(C(=O)c2ccco2)n2cccc2c1 [II-13, 5-(furan-2-carbonyl) indolizine-7-methyl carboxylate] |
| 5.00 to 6.00 | CCOC(=O)c1cc(C(=O)c2ccco2)n2cccc2c1 [II-14, 5-(furan-2-carbonyl) indolizine-7-ethyl carboxylate] |
| 4.70 to 5.00 | COC(=O)c1cc(C(=O)c2cccs2)n2cccc2c1 [II-15, 5-(thiophen-2-carbonyl)indolizine-7-methyl carboxylate] |
| 5.00 to 6.00 | CCOC(=O)c1cc(C(=O)c2cccs2)n2cccc2c1 [II-16, 5-(thiophen-2-carbonyl) indolizine-7-ethyl carboxylate] |
| 5.00 to 6.00 | COC(=O)c1cc(C(=O)c2ccccn2)n2cccc2c1 [II-17, 5-methylpyridinimide-7-methyl carboxylate] |
| 5.00 to 6.00 | CCOC(=O)c1cc(C(=O)c2ccccn2)n2cccc2c1 [II-18, 5-methylpyridinimide-7-ethyl carboxylate] |
| 4.70 to 5.00 | O=C(O)c1cc(C(=O)c2ccccc2)n2cccc2c1 [II-19, 5-benzimide-7-carboxylic acid] |
| 4.70 to 5.00 | NC(=O)c1cc(C(=O)c2ccccc2)n2cccc2c1 [II-20, 5-benzimide-7-formamide] |
| 4.70 to 5.00 | CCNC(=O)c1cc(C(=O)c2ccccc2)n2cccc2c1 [II-21, 5-benzoyl-N-ethylindolizine-7-formamide] |
| 4.70 to 5.00 | CN(C)C(=O)c1cc(C(=O)c2ccccc2)n2cccc2c1 [II-22, 5-benzoyl-N, N-dimethylindolizine-7-formamide] |
| 5.00 to 6.00 | CCN(C)C(=O)c1cc(C(=O)c2ccccc2)n2cccc2c1 [II-24, 5-Benzoyl-N-ethyl-N-methylindolizine-7-formamide] |
| 5.00 to 6.00 | CON(C)C(=O)c1cc(C(=O)c2ccccc2)n2cccc2c1 [II-25, 5-Benzoyl-N-methoxy-N-methylindolizine-7-formamide] |
| 5.00 to 6.00 | O=C(c1ccccc1)c1cc(C(=O)N2CCC2)cc2cccn12 [II-26, azetidine-1-yl (5-benzoimide 7-yl) ketone] |
| 4.70 to 5.00 | O=C(c1ccccc1)c1cc(C(=O)N2CCCC2)cc2cccn12 [II-27, (5-benzoimide 7-yl) (pyrrolidine-1-yl) ketone] |
| 4.70 to 5.00 | O=C(c1ccccc1)c1cc(C(=O)N2CCCCC2)cc2cccn12 [II-28, (5-benzimide 7-yl) (piperidin-1-yl) ketone] |
| 4.30 to 4.70 | O=C(c1ccccc1)c1cc(C(=O)N2CCNCC2)cc2cccn12 [II-29, (5-benzoyl indolizine-7-yl) (piperazin-1-yl) ketone] |

| pIC50 | Molecule |
| --- | --- |
| 4.30 to 4.70 | O=C(c1ccccc1)c1cc(C(=O)N2CCOCC2)cc2cccn12 [II-30, (5-benzimide-7-yl) (morphyryl) ketone] |
| 4.70 to 5.00 | CN1CCN(C(=O)c2cc(C(=O)c3ccccc3)n3cccc3c2)CC1 [II-31, (5-Benzimide-7-yl) (4-methylpiperazin-1-yl) ketone] |
| 4.70 to 5.00 | CCN(CC)C(=O)c1cc(C(=O)c2ccccc2F)n2cccc2c1 [II-32, N, N-Diethyl-5-(2-fluorobenzoyl) indolizine-7-formamide] |
| 4.70 to 5.00 | O=C(c1ccccc1F)c1cc(C(=O)N2CCCC2)cc2cccn12 [II-33, (5-(2-fluorobenzoyl)indolizine-7-yl) (pyrrolidine-1-yl) ketone] |
| 5.00 to 6.00 | CCN(CC)C(=O)c1cc(C(=O)c2ccccn2)n2cccc2c1 [II-34, N, N-Diethyl-5-pyridylimide-7-formamide] |
| 4.70 to 5.00 | O=C(c1ccccn1)c1cc(C(=O)N2CCCC2)cc2cccn12 [II-35] |
| 4.30 to 4.70 | O=C(c1ccccn1)c1cc(C(=O)N2CCNCC2)cc2cccn12 [II-36, (5-Pyridinyllin-2-yl) (Piperazin-1-yl) Methylketone] |
| 4.70 to 5.00 | O=C(c1ccccc1)c1cc(C(=O)N2CCNCC2)cc2cccn12 [II-37, (5-Benzimide-7-yl) (piperazin-1-yl) ketone hydrochloride] |
| 4.30 to 4.70 | CCN(CC)C(=O)c1cc(C(=O)c2ccccn2)n2cccc2c1 [II-38, N,N-Diethyl-5-pyridylimide-7-formamide hydrochloride] |
| 4.70 to 5.00 | O=C(c1ccccn1)c1cc(C(=O)N2CCNCC2)cc2cccn12 [II-40, hydrochloride] |
| 4.70 to 5.00 | CCOC(=O)c1cc(C(O)c2ccccc2)n2cccc2c1 (centres unmarked) [II-41] |
| 4.70 to 5.00 | O=C(O)c1cc(C(O)c2ccccc2)n2cccc2c1 (centres unmarked) [II-42] |
| 4.70 to 5.00 | CCNC(=O)c1cc(C(O)c2ccccc2)n2cccc2c1 (centres unmarked) [II-43, N-ethyl-5-(hydroxy(phenyl)methyl) indolizine-7-formamide] |
| 4.70 to 5.00 | CN(C)C(=O)c1cc(C(O)c2ccccc2)n2cccc2c1 (centres unmarked) [II-44, 5-(hydroxy(phenyl)methyl)-N, N-dimethylindolizine-7-formamide] |
| 4.70 to 5.00 | CCN(CC)C(=O)c1cc(C(O)c2ccccc2)n2cccc2c1 (centres unmarked) [II-45, N,N-diethyl-5-(hydroxy(phenyl)methyl) indolizine-7-formamide] |
| 4.70 to 5.00 | CCN(C)C(=O)c1cc(C(O)c2ccccc2)n2cccc2c1 (centres unmarked) [II-46, N-ethyl-5-(hydroxy(phenyl)methyl)-N-methylindolizine-7-formamide] |
| 4.70 to 5.00 | CCCC(=O)OC(c1ccccc1)c1cc(C(=O)OCC)cc2cccn12 (centres unmarked) [II-48] |
| 4.70 to 5.00 | CCN(CC)C(=O)c1cc(C(OC(C)=O)c2ccccc2)n2cccc2c1 (centres unmarked) [II-50] |
| 4.30 to 4.70 | CCCC(=O)OC(c1ccccc1)c1cc(C(=O)N(CC)CC)cc2cccn12 (centres unmarked) [II-51] |
| 4.30 to 4.70 | CCCCCCCC(=O)OC(c1ccccc1)c1cc(C(=O)N(CC)CC)cc2cccn12 (centres unmarked) [II-52] |
| 5.00 to 6.00 | CCOC(=O)c1cc(C(OC)c2ccccc2)n2cccc2c1 (centres unmarked) [II-53] |
| 4.70 to 5.00 | CCCOC(c1ccccc1)c1cc(C(=O)OCC)cc2cccn12 (centres unmarked) [II-54, 5-(Phenyl (Propyloxy) Methylindolizine-7-ethyl carboxylate] |
| 4.70 to 5.00 | COC(=O)c1cc(C(=O)c2ccc(Cl)cc2)n2ccnc2c1 [III-2, 5-(4-chlorobenzoyl) imidazolo [1,2-a]pyridine-7-methyl carboxylate] |
| 4.70 to 5.00 | COC(=O)c1cc(C(=O)c2ccc(C)cc2)n2ccnc2c1 [III-3, 5-(4-methylbenzoyl) imidazolo [1,2-a]pyridine-7-methyl carboxylate] |
| 4.70 to 5.00 | CCOC(=O)c1cc(C(=O)c2ccccc2)n2ccnc2c1 [III-4, 5-benzimidazolo[1,2-a]pyridine-7-ethyl carboxylate] |
| 4.70 to 5.00 | O=C(O)c1cc(C(=O)c2ccccc2)n2ccnc2c1 [III-5, 5-benzimide azo [1,2-a]pyridine-7-carboxylic acid] |
| 4.70 to 5.00 | CN(C)C(=O)c1cc(C(=O)c2ccccc2)n2ccnc2c1 [III-6, 5-Benzoyl-N,N-dimethylimidazole[1,2-a]pyridine-7-formamide] |

| Molecule | pIC50 |
| --- | --- |
| CCOC(=O)c1cc(C(OC(C)=O)c2ccccc2)n2cccc2c1 (centres unmarked) [II-47, 5-(acetoxy (phenyl)methyl) indolizine-7-ethyl carboxylate] | 4.70 to 5.00 |
